The values below come from the supplement of paper PMC10307832.

What all share (test): relative viability (nuclei count vs DMSO), 5 days (fraction); higher = more cells survive
Compound in the experiment “KIN001-266 + Trametinib”: CCN1CCC(CC1)N2C=C(N=N2)CNC3=CC4=C(C(=CN=C4C(=C3)Cl)C#N)NC5=CC(=C(C=C5)F)Cl [KIN001-266] + CC(=O)Nc1cccc(-n2c(=O)n(C3CC3)c(=O)c3c(Nc4ccc(I)cc4F)n(C)c(=O)c(C)c32)c1 [Trametinib] (partner 0.02 µM)
A digest of the protocol: (§1)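 Cells from lung cancer lines were seeded into 1536-well plates and, one day later, dosed by pin tool. Treatments were either a single drug or a fixed dose of an anchor drug with five library-drug doses (not always all listed) in √10 steps. After 5 days, nuclei were stained in a one-step fixation (final 0.05% Triton X-100, 1% formaldehyde, 1 ug/ml Hoechst) and counted on 4× images, and relative viability is the treated-to-vehicle nuclei ratio, as the median of duplicate plates.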

Compound in the experiment “KIN001-266 + Navitoclax”: CCN1CCC(CC1)N2C=C(N=N2)CNC3=CC4=C(C(=CN=C4C(=C3)Cl)C#N)NC5=CC(=C(C=C5)F)Cl [KIN001-266] + CC1(C)CCC(c2ccc(Cl)cc2)=C(CN2CCN(c3ccc(C(=O)NS(=O)(=O)c4ccc(N[C@H](CCN5CCOCC5)CSc5ccccc5)c(S(=O)(=O)C(F)(F)F)c4)cc3)CC2)C1 [Navitoclax] (partner 0.5 µM)
A digest of the protocol: as §1

Compound in the experiment “KIN001-266 + Pemetrexed”: CCN1CCC(CC1)N2C=C(N=N2)CNC3=CC4=C(C(=CN=C4C(=C3)Cl)C#N)NC5=CC(=C(C=C5)F)Cl [KIN001-266] + Nc1nc2[nH]cc(CCc3ccc(C(=O)N[C@@H](CCC(=O)O)C(=O)O)cc3)c2c(=O)[nH]1 [Pemetrexed] (partner 0.2 µM)
A digest of the protocol:
as §1

Compound in the experiment “KIN001-266 + Phenformin”: CCN1CCC(CC1)N2C=C(N=N2)CNC3=CC4=C(C(=CN=C4C(=C3)Cl)C#N)NC5=CC(=C(C=C5)F)Cl [KIN001-266] + N=C(N)NC(=N)NCCc1ccccc1 [Phenformin] (partner 250 µM)
A digest of the protocol:
as §1

As for EPLC-272H, the relative viability with KIN001-266 + Trametinib (first compound 0.08 µM) came out at 0.295; with KIN001-266 + Trametinib (first compound 0.253 µM), 0.273; in the experiment with KIN001-266 + Trametinib (first compound 0.8 µM), 0.284; with KIN001-266 + Trametinib (first compound 2.53 µM) it was 0.27; in the experiment with KIN001-266 + Trametinib (first compound 8 µM), 0.275; with KIN001-266 + Navitoclax (first compound 0.08 µM), 1.16. The relative viability with KIN001-266 + Navitoclax (first compound 0.253 µM) was 1.42; with KIN001-266 + Navitoclax (first compound 0.8 µM), 0.966; in the experiment with KIN001-266 + Navitoclax (first compound 2.53 µM), 1.11; with KIN001-266 + Navitoclax (first compound 8 µM), 0.763; with KIN001-266 + Pemetrexed (first compound 0.08 µM) it was 0.373; in the experiment with KIN001-266 + Pemetrexed (first compound 0.253 µM) it was 0.364. The relative viability with KIN001-266 + Pemetrexed (first compound 0.8 µM) stood at 0.374; with KIN001-266 + Pemetrexed (first compound 2.53 µM) it was 0.319; with KIN001-266 + Pemetrexed (first compound 8 µM), 0.323; in the experiment with KIN001-266 + Phenformin (first compound 0.08 µM) it was 0.334; with KIN001-266 + Phenformin (first compound 0.253 µM) it was 0.317; in the experiment with KIN001-266 + Phenformin (first compound 0.8 µM) it was 0.274. The relative viability in the experiment with KIN001-266 + Phenformin (first compound 2.53 µM) was 0.234; with KIN001-266 + Phenformin (first compound 8 µM) it was 0.239.

For the cell line NCI-H2023, the relative viability with KIN001-266 + Trametinib (first compound 0.08 µM) stood at 0.51; with KIN001-266 + Trametinib (first compound 0.253 µM), 0.578; in the experiment with KIN001-266 + Trametinib (first compound 0.8 µM) it was 0.533; with KIN001-266 + Trametinib (first compound 2.53 µM) it was 0.447; with KIN001-266 + Trametinib (first compound 8 µM), 0.456; with KIN001-266 + Navitoclax (first compound 0.08 µM) it was 0.956. In addition, the relative viability with KIN001-266 + Navitoclax (first compound 0.253 µM) is 1; in the experiment with KIN001-266 + Navitoclax (first compound 0.8 µM), 1.08; with KIN001-266 + Navitoclax (first compound 2.53 µM), 0.93; in the experiment with KIN001-266 + Navitoclax (first compound 8 µM) it was 1.05; with KIN001-266 + Pemetrexed (first compound 0.08 µM), 0.233; with KIN001-266 + Pemetrexed (first compound 0.253 µM) it was 0.192. Besides, the relative viability with KIN001-266 + Pemetrexed (first compound 0.8 µM) was 0.296; with KIN001-266 + Pemetrexed (first compound 2.53 µM), 0.221; in the experiment with KIN001-266 + Pemetrexed (first compound 8 µM) it was 0.201; with KIN001-266 + Phenformin (first compound 0.08 µM), 0.378; with KIN001-266 + Phenformin (first compound 0.253 µM), 0.391; with KIN001-266 + Phenformin (first compound 0.8 µM), 0.401. Besides, the relative viability with KIN001-266 + Phenformin (first compound 2.53 µM) stood at 0.304; with KIN001-266 + Phenformin (first compound 8 µM), 0.28.

Regarding BEN, the relative viability with KIN001-266 + Trametinib (first compound 0.08 µM) is 1.01; with KIN001-266 + Trametinib (first compound 0.253 µM), 1.01; with KIN001-266 + Trametinib (first compound 0.8 µM), 1.07; in the experiment with KIN001-266 + Trametinib (first compound 2.53 µM), 1.03; in the experiment with KIN001-266 + Trametinib (first compound 8 µM), 1.15; with KIN001-266 + Navitoclax (first compound 0.08 µM) it was 0.064. The relative viability with KIN001-266 + Navitoclax (first compound 0.253 µM) stood at 0.0577; with KIN001-266 + Navitoclax (first compound 0.8 µM) it was 0.0627; with KIN001-266 + Navitoclax (first compound 2.53 µM), 0.0713; with KIN001-266 + Navitoclax (first compound 8 µM), 0.0844; with KIN001-266 + Pemetrexed (first compound 0.08 µM), 0.982; with KIN001-266 + Pemetrexed (first compound 0.253 µM), 0.776. For the same cell line, the relative viability in the experiment with KIN001-266 + Pemetrexed (first compound 0.8 µM) was determined as 0.919; with KIN001-266 + Pemetrexed (first compound 2.53 µM), 0.68; with KIN001-266 + Pemetrexed (first compound 8 µM), 0.744; with KIN001-266 + Phenformin (first compound 0.08 µM) it was 0.262; with KIN001-266 + Phenformin (first compound 0.253 µM), 0.262; with KIN001-266 + Phenformin (first compound 0.8 µM), 0.275. The relative viability with KIN001-266 + Phenformin (first compound 2.53 µM) stood at 0.259; with KIN001-266 + Phenformin (first compound 8 µM), 0.231.

Turning to COR-L 105, the relative viability with KIN001-266 + Trametinib (first compound 0.08 µM) turned out to be 0.42; with KIN001-266 + Trametinib (first compound 0.253 µM), 0.517; with KIN001-266 + Trametinib (first compound 0.8 µM), 0.417; with KIN001-266 + Trametinib (first compound 2.53 µM) it was 0.43; in the experiment with KIN001-266 + Trametinib (first compound 8 µM), 0.455; in the experiment with KIN001-266 + Navitoclax (first compound 0.08 µM), 0.725. The relative viability with KIN001-266 + Navitoclax (first compound 0.253 µM) came to 0.681; in the experiment with KIN001-266 + Navitoclax (first compound 0.8 µM), 0.805; with KIN001-266 + Navitoclax (first compound 2.53 µM), 0.946; with KIN001-266 + Navitoclax (first compound 8 µM), 0.817; with KIN001-266 + Pemetrexed (first compound 0.08 µM), 1.13; with KIN001-266 + Pemetrexed (first compound 0.253 µM), 1.06. Moreover, the relative viability with KIN001-266 + Pemetrexed (first compound 0.8 µM) is 0.883; with KIN001-266 + Pemetrexed (first compound 2.53 µM), 1.11; in the experiment with KIN001-266 + Pemetrexed (first compound 8 µM), 1.07; with KIN001-266 + Phenformin (first compound 0.08 µM), 0.48; in the experiment with KIN001-266 + Phenformin (first compound 0.253 µM), 0.641; with KIN001-266 + Phenformin (first compound 0.8 µM), 0.534. The values for the relative viability in the experiment with KIN001-266 + Phenformin (first compound 2.53 µM) and in the experiment with KIN001-266 + Phenformin (first compound 8 µM) were 0.641 and 0.431, respectively.
